# In ChEMBL document CHEMBL6078703, “Discovery of Novel Thiophene-Based Baloxavir Derivatives as Potent Cap-Dependent Endonuclease Inhibitors for Influenza Treatment” (J Med Chem, 2024):
# Calls of active or inactive are those of the source. No cut-off for these calls is given here.
# Columns and labels:
# [1] = Cytotoxicity against human 786O cells assessed as cell viability measured after 48 hrs by CCK-8 assay; type: toxicity, cell-based, 786-0
# [2] = Cytotoxicity against human Huh-7 cells assessed as cell viability measured after 48 hrs by CCK-8 assay; type: toxicity, cell-based
# [3] = Cytotoxicity against human HepG2 cells assessed as cell viability measured after 48 hrs by CCK-8 assay; type: toxicity, cell-based
# [4] = Cytotoxicity against human Hep3B cells assessed as cell viability measured after 48 hrs by CCK-8 assay; type: toxicity, cell-based, Hep 3B2
# [5] = Acute toxicity in CD-1 mouse assessed as mouse survival at 2000 mg/kg, po single dose measured for 2 weeks; type: organism-based; conditions: in vivo, 336 h
# [6] = Acute toxicity in CD-1 mouse assessed as clinical signs of toxicity at 2000 mg/kg, po single dose measured for 2 weeks; type: organism-based; conditions: in vivo, 336 h
# [7] = Acute toxicity in CD-1 mouse assessed as abnormal lesions in lungs at 2000 mg/kg, po single dose measured for 2 weeks by macroscopic examination; type: organism-based; conditions: in vivo, 336 h
# [8] = Acute toxicity in CD-1 mouse assessed as abnormal lesions in intestine at 2000 mg/kg, po single dose measured for 2 weeks by macroscopic examination; type: organism-based; conditions: in vivo, 336 h
# [9] = Acute toxicity in CD-1 mouse assessed as abnormal lesions in kidney at 2000 mg/kg, po single dose measured for 2 weeks by macroscopic examination; type: organism-based; conditions: in vivo, 336 h
# [10] = Acute toxicity in CD-1 mouse assessed as abnormal lesions in spleen at 2000 mg/kg, po single dose measured for 2 weeks by macroscopic examination; type: organism-based; conditions: in vivo, 336 h
# [11] = tested on: Influenza A virus; assay: In vivo antiviral activity against influenza strain A/WSN/1933 (H1N1) infected in BALB/c mouse assessed as weight regaining at 10 to 40 mg/kg, IG treated 12 hrs after infection measured on 9 dpi; type: functional, organism-based; conditions: dose 10-40 mg/kg, time 9.0 day
# [12] = tested on: Influenza A virus; assay: In vivo antiviral activity against influenza strain A/WSN/1933 (H1N1) infected in BALB/c mouse assessed as increase in mouse survival at 10 to 40 mg/kg, IG treated 12 hrs after infection measured on 9 dpi; type: functional, organism-based; conditions: dose 10-40 mg/kg, time 9.0 day
# [13] = tested on: Influenza A virus; assay: In vivo antiviral activity against influenza strain A/WSN/1933 (H1N1) infected in BALB/c mouse assessed as inhibition of virus-induced inflammatory cytokine IFNgamma level at 10 to 40 mg/kg, IG treated 12 hrs after infection measured on 9 dpi; type: functional, organism-based; conditions: dose 10-40 mg/kg, time 9.0 day
# [14] = tested on: Influenza A virus; assay: In vivo antiviral activity against influenza strain A/WSN/1933 (H1N1) infected in BALB/c mouse assessed as inhibition of virus-induced inflammatory cytokine IL-6 level at 10 to 40 mg/kg, IG treated 12 hrs after infection measured on 9 dpi; type: functional, organism-based; conditions: dose 10-40 mg/kg, time 9.0 day
# [15] = tested on: Influenza A virus; assay: In vivo antiviral activity against influenza strain A/WSN/1933 (H1N1) infected in BALB/c mouse assessed as inhibition of virus-induced inflammatory cytokine TNF-alpha level at 10 to 40 mg/kg, IG treated 12 hrs after infection measured on 9 dpi; type: functional, organism-based; conditions: dose 10-40 mg/kg, time 9.0 day
# [16] = tested on: Influenza A virus; assay: In vivo antiviral activity against influenza strain A/WSN/1933 (H1N1) infected in BALB/c mouse assessed as inhibition of virus-induced inflammatory cytokine IL-1beta level at 10 to 40 mg/kg, IG treated 12 hrs after infection measured on 9 dpi; type: functional, organism-based; conditions: dose 10-40 mg/kg, time 9.0 day
# [17] = tested on: Influenza A virus; assay: In vivo antiviral activity against influenza strain A/WSN/1933 (H1N1) infected in BALB/c mouse assessed as improvement in alveolar collapse in lungs at 20 to 40 mg/kg, IG treated 12 hrs after infection measured on 9 dpi by histopathological analysis; type: functional, organism-based; conditions: dose 20-40 mg/kg, time 9.0 day
# [18] = tested on: Influenza A virus; assay: In vivo antiviral activity against influenza strain A/WSN/1933 (H1N1) infected in BALB/c mouse assessed as improvement in septal thickening in lungs at 20 to 40 mg/kg, IG treated 12 hrs after infection measured on 9 dpi by histopathological analysis; type: functional, organism-based; conditions: dose 20-40 mg/kg, time 9.0 day
# [19] = tested on: Influenza A virus; assay: In vivo antiviral activity against influenza strain A/WSN/1933 (H1N1) infected in BALB/c mouse assessed as improvement in alveolar collapse in lungs at 10 to 20 mg/kg, IG treated 12 hrs after infection measured on 9 dpi by histopathological analysis; type: functional, organism-based; conditions: dose 10-20 mg/kg, time 9.0 day
# [20] = tested on: Influenza A virus; assay: In vivo antiviral activity against influenza strain A/WSN/1933 (H1N1) infected in BALB/c mouse assessed as improvement in septal thickening in lungs at 10 to 20 mg/kg, IG treated 12 hrs after infection measured on 9 dpi by histopathological analysis; type: functional, organism-based; conditions: dose 10-20 mg/kg, time 9.0 day
# [21] = tested on: Influenza A virus; assay: In vivo antiviral activity against influenza strain A/WSN/1933 (H1N1) infected in BALB/c mouse assessed as reduction in overall inflammation in lungs at 10 to 20 mg/kg, IG treated 12 hrs after infection measured on 9 dpi by histopathological analysis; type: functional, organism-based; conditions: dose 10-20 mg/kg, time 9.0 day
# [22] = tested on: Influenza A virus; assay: Antiviral activity against influenza strain A/WSN/1933 (H1N1) infected in MDCK cells assessed as reduction of virus-induced cytopathic effect measured after 2 days incubation; type: functional, organism-based; conditions: 48 h
# [23] = tested on: Influenza A virus; assay: Antiviral activity against influenza strain A/Aichi/ 2/1968 (H3N2) infected in MDCK cells assessed as reduction of virus-induced cytopathic effect measured after 2 days incubation; type: functional, organism-based; conditions: 48 h
# [24] = Cytotoxicity against dog MDCK cells assessed as cell viability measured after 48 hrs by CCK-8 assay; type: toxicity, cell-based, Canis lupus familiaris
# [25] = Selectivity index, ratio of CC50 for dog MDCK cells to EC50 for antiviral activity against influenza strain A/WSN/1933 (H1N1) infected in MDCK cells; type: toxicity, cell-based; conditions: read-out: Selectivity Index
# [26] = Selectivity index, ratio of CC50 for dog MDCK cells to EC50 for antiviral activity against influenza strain A/Aichi/ 2/1968 (H3N2) infected in MDCK cells; type: toxicity, cell-based; conditions: read-out: Selectivity Index
# [27] = Half life in CD-1 mouse at 15 mg/kg, po measured up to 24 hrs by LC-MS/MS analysis; type: ADME, organism-based; conditions: in vivo
# [28] = Tmax in CD-1 mouse at 15 mg/kg, po measured up to 24 hrs by LC-MS/MS analysis; type: ADME, organism-based; conditions: in vivo
# [29] = Cmax in CD-1 mouse at 15 mg/kg, po measured up to 24 hrs by LC-MS/MS analysis; type: ADME, organism-based; conditions: in vivo
# [30] = AUC (0 to infinity) in CD-1 mouse at 15 mg/kg, po measured up to 24 hrs by LC-MS/MS analysis; type: ADME, organism-based; conditions: in vivo
# [31] = MRT (0 to infinity) in CD-1 mouse at 15 mg/kg, po measured up to 24 hrs by LC-MS/MS analysis; type: ADME, organism-based; conditions: in vivo
# [32] = Oral bioavailability in CD-1 mouse at 15 mg/kg measured up to 24 hrs by LC-MS/MS analysis; type: ADME, organism-based; conditions: in vivo
# [33] = Half life in CD-1 mouse at 1 mg/kg, iv measured up to 24 hrs by LC-MS/MS analysis; type: ADME, organism-based; conditions: in vivo
# [34] = Tmax in CD-1 mouse at 1 mg/kg, iv measured up to 24 hrs by LC-MS/MS analysis; type: ADME, organism-based; conditions: in vivo
# [35] = Cmax in CD-1 mouse at 1 mg/kg, iv measured up to 24 hrs by LC-MS/MS analysis; type: ADME, organism-based; conditions: in vivo
# [36] = AUC (0 to infinity) in CD-1 mouse at 1 mg/kg, iv measured up to 24 hrs by LC-MS/MS analysis; type: ADME, organism-based; conditions: in vivo
# [37] = MRT (0 to infinity) in CD-1 mouse at 1 mg/kg, iv measured up to 24 hrs by LC-MS/MS analysis; type: ADME, organism-based; conditions: in vivo
# [38] = Metabolic stability in human liver microsomes assessed as half life measured up to 60 mins by LC-MS/MS analysis; type: ADME, Microsome
# [39] = Metabolic stability in mouse liver microsomes assessed as half life measured up to 60 mins by LC-MS/MS analysis; type: ADME, Microsome
# [40] = tested on: HEK293T; assay: Inhibition of H1N1 influenza virus RdRp extracted for human 293T cells assessed as luminescence signal after 24 hrs incubation by Firefly/Renilla luciferase assay; type: cell-based; conditions: Influenza A virus, dose 0.625-12.5 nM
# [41] = tested on: Mus musculus; assay: In vivo inhibition of polymerase acid protein (PA) mRNA expression in H1N1 influenza virus infected in BALB/c mouse at 20 to 40 mg/kg single oral dose by qRT-PCR analysis; type: functional, organism-based; conditions: dose 20-40 mg/kg
# [42] = tested on: Mus musculus; assay: In vivo inhibition of […] (PA) mRNA expression in H1N1 influenza virus infected in BALB/c mouse at 20 to 40 mg/kg single oral dose by qRT-PCR analysis; type: functional, organism-based; conditions: dose 20-40 mg/kg
# [43] = tested on: Mus musculus; assay: In vivo inhibition of polymerase acid protein (PA) protein expression in H1N1 influenza virus infected in BALB/c mouse at 20 to 40 mg/kg single oral dose by Western blot analysis; type: functional, organism-based; conditions: dose 20-40 mg/kg
# [44] = tested on: Mus musculus; assay: In vivo inhibition of […] (PA) protein expression in H1N1 influenza virus infected in BALB/c mouse at 20 to 40 mg/kg single oral dose by Western blot analysis; type: functional, organism-based; conditions: dose 20-40 mg/kg
# [45] = Metabolic stability in human liver microsomes assessed as intrinsic clearance measured up to 60 mins by LC-MS/MS analysis; type: ADME, Microsome; conditions: read-out: CLH
# [46] = Metabolic stability in mouse liver microsomes assessed as intrinsic clearance measured up to 60 mins by LC-MS/MS analysis; type: ADME, Microsome; conditions: read-out: CLH
# [47] = tested on: Influenza A virus; assay: Antiviral activity against influenza virus clinical strain H3N2 (A/Guangdong/2/2023) infected in MDCK cells assessed as reduction of virus-induced cytopathic effect measured after 2 days incubation; type: functional, organism-based; conditions: 48 h
smiles,measurement,setting,value
COC(=O)OCOc1c2n(ccc1=O)N([C@@H](c1ccc(F)c(F)c1)c1cccs1)[C@@H]1COCCN1C2=O,CC50 at 48 h,[1],29.9 µM
same,CC50 at 48 h,[2],60.1 µM
same,CC50 at 48 h,[3],> 50 µM
same,CC50 at 48 h,[4],> 50 µM
same,Activity,[5],Non-toxic
same,Activity,[6],Non-toxic
same,Activity,[7],Non-toxic
same,Activity,[8],Non-toxic
same,Activity,[9],Non-toxic
same,Activity,[10],Non-toxic
same,Activity,[11],Active; Surviving Animals Gradually Starting Weight Weight Beginning 9 Dpi
same,Activity,[12],Active
same,Activity,[13],Active
same,Activity,[14],Active
same,Activity,[15],Active
same,Activity,[16],Active
same,Activity,[17],Active
same,Activity,[18],Active
same,Activity,[19],inactive
same,Activity,[20],inactive
same,Activity,[21],Active
O=C1c2c(O)c(=O)ccn2N([C@@H](c2ccc(F)c(F)c2)c2cccs2)[C@@H]2COCCN12,EC50,[22],0.00188 µM
same,EC50,[23],0.00477 µM
same,CC50 at 48 h,[24],34.2 µM
same,selectivity ratio,[25],18200
same,selectivity ratio,[26],7180
same,CC50 at 48 h,[1],13.8 µM
same,CC50 at 48 h,[2],41.6 µM
same,CC50 at 48 h,[3],> 50 µM
same,CC50 at 48 h,[4],46.3 µM
same,half-life,[27],4.3 h
same,Tmax,[28],0.42 h
same,Cmax,[29],4070 ng/mL
same,AUC(0-inf),"[30]; CD-1, mouse",11100 ng·h/mL
same,MRT inf,[31],2.77 h
same,bioavailability,"[32]; CD-1, mouse",71.6%
same,half-life,[33],3.43 h
same,Tmax,[34],4.8 min
same,Cmax,[35],940 ng/mL
same,AUC(0-inf),"[36]; CD-1, mouse",1230 ng·h/mL
same,MRT inf,[37],2.98 h
same,half-life,[38],12.8 h
same,half-life,[39],38.5 h
same,Activity,[40],Dose-dependent-effect
same,inhibition,[41],Active
same,inhibition,[42],Active
same,inhibition,[43],Active
same,inhibition,[44],Active
same,CLint scaled,[45],1.62 mL/min/kg
same,CLint scaled,[46],2.38 mL/min/kg
same,EC50,[47],0.00249 µM
O=C1c2c(O)c(=O)ccn2N([C@@H]2c3ccccc3SCc3c2ccc(F)c3F)[C@@H]2COCCN12 [BALOXAVIR],EC50,[22],0.00176 µM
same,EC50,[23],0.00381 µM
same,selectivity ratio,[25],5290
same,selectivity ratio,[26],2440
same,CC50 at 48 h,[1],2.86 µM
same,CC50 at 48 h,[2],9.34 µM
same,CC50 at 48 h,[3],19.1 µM
same,CC50 at 48 h,[4],7.38 µM
same,AUC,"[30]; mouse, po, 15 mg/kg, 24 h",2877 ng·h/mL
same,F,"[32]; mouse, po, 15 mg/kg, 24 h",27.2%
same,AUC,"[36]; mouse, iv, 1 mg/kg, 24 h",239 ng·h/mL
same,Activity,[11],Active; Surviving Animals Gradually Starting Weight Weight Beginning 9 Dpi
same,Activity,[12],Active
same,Activity,[17],Active
same,Activity,[18],Active
same,EC50,[47],0.00175 µM
